Assay results taken from patent publication US4469701A, “Pyrrolid-3-en-2-ones and pharmaceutical methods of use thereof” (Stauffer Chemical Company, priority 1983, dated 1984).

What was measured:
[1] = test system: mice; assay: Peripheral anticholinergic: lacrimation and salivation in mice; type: in vivo; conditions: Mus musculus, ip, read-out: ED-100, peripheral anticholinergic
[2] = test system: mice; assay: Central anticholinergic: oxotremorine tremors in mice; conditions: Mus musculus, ip, 1 h, read-out: ED-100, central anticholinergic
[3] = test system: mice; assay: Acute toxicity / autonomic effects observation; conditions: mouse, in vivo
Description: Mice were dosed at 300 mg/kg, per oral (p.o.) and […], interperitoneal (i.p.) for observation of any acute toxic symptoms or autonomic effects during the subsequent 72 hours. If none were noted, pharmacological evaluation proceeded employing doses and concentrations for each test based on appropriate multiples of doses required by suitable reference compounds. If acute toxicity was observed initially, the minimal toxic dose was determined and pharmacological screening doses were reduced proportionately.

[4] = test system: spontaneously hypertensive rats (SHR); assay: Antihypertensive: blood pressure (tail cuff) in spontaneously hypertensive rats (SHR); type: in vivo, rat; conditions: Rattus norvegicus; 6 hr. after a 100 mg/kg oral dose; significance >10; read-out: Antihypertensive: percent decrease in systolic blood pressure in spontaneously hypertensive rats
Description: Blood pressure was measured indirectly (tail cuff) in unanesthetized, unheated spontaneously hypertensive rats (SHR) before and 2, 4, and 6 hours after p.o. dosing. Reduction in mean pressure by more than 10% (>10) at any two consecutive measurement times after dosing indicates antihypertensive activity.

[5] = test system: rats; assay: Bradycardia: heart rate by EKG in rats; type: in vivo, rat; conditions: Rattus norvegicus, 0.75 h; 45 min. after a 5 mg/kg oral dose in rats; significance >10; read-out: B = Bradycardiac: percent decrease in heart rate
Description: […] Decrease in heart rate by more than 10% (>10) is considered a bradycardic effect.
Percent decrease in heart rate 45 min. after a 5
mg/kg oral dose in rats.

[6] = test system: mice; assay: Antiarrhythmic: chloroform-induced cardiac arrhythmia in mice; type: in vivo, mouse; conditions: 15 min. after a 200 mg/kg intraperitoneal dose; significance <2
Description: ^2 A = Antiarrythmic. Less than 2/3 mouse hearts fibrillating 15 min.

[7] = test system: hypercholesterolemic mice; assay: Hypocholesterolemic: serum cholesterol in hypercholesterolemic mice; type: in vivo, mouse; conditions: hypercholesterolemic mice; for inhibition in vivo at 200 mg/kg: 2 oral doses of 200 mg/kg 20 hr. apart, significance >20, read-out: C = Hypocholesterolemic: percent decrease in serum cholesterol
Description: Mice made hypercholesterolemic by being fed a high cholesterol-cholic acid diet for 7 days were dosed on the sixth and seventh days, p.o. After fasting overnight, reduction in serum cholesterol concentration by more than 15% (>15) from hypercholesterolemic control mice indicates activity.
^4 C = Hypocholesterolemic. Percent decrease in serum cholesterol in
hypercholesterolemic mice given 2 oral doses of 200 mg/kg drug candidate

[8] = test system: rats; assay: Antiulcer: stress induced gastric ulcers in rats; type: in vivo, rat; conditions: for inhibition in vivo at 50 mg/kg: 4 hr. following a 50 mg/kg oral dose in rats, significance >60, read-out: U = Antiulcerative: percent inhibition of stress ulcers
Description: Fasted rats were dosed, p.o., 30 minutes before immobilization in wire mesh and partial immersion in water for 4 hours. Inhibition of the resulting stress induced gastric ulcers by more than 60% (>60) indicates activity.
^6 U = Antiulcerative. Percent inhibition of stress ulcers 4 hr.
following a 50 mg/kg oral dose in rats.

[9] = Central nervous system (CNS) depression/effects; conditions: in vivo
[10] = Anticholinergic properties (overall statement); conditions: in vivo
[11] = test system: starch loaded mice; assay: Carbohydrate (CHO) efficiency/hypoglycemic, starch loaded mice; type: in vivo, mouse; conditions: for ED100: Mus musculus, 1 h, oral, reference compounds, read-out: ED-100, CHO efficiency/hypoglycemic
[12] = test system: glucose-loaded mice; assay: Hypoglycemic, glucose-loaded mice; type: in vivo, mouse; conditions: for ED100: Mus musculus, po, 1 h, p.o., reference compounds, read-out: ED-100, hypoglycemic, mice
Description: Reduction in blood glucose concentration by more than 20% (>20) in fasted, glucose-loaded (1 gm/kg) mice one hour after dosing, p.o., indicates activity (test compound administered at same time as glucose load).
^5 H = Hypoglycemic. Percent decrease in serum glucose concentration
in glucose loaded mice hr. following a 100 mg/kg oral dose.

[13] = test system: hypercholesterolemic mice; assay: HP-betalipoprotein: serum heparin precipitating lipoprotein (HPL); type: in vivo, mouse; conditions: hypercholesterolemic mice, reference compounds
Excerpt: Reduction of serum heparin precipitating lipoprotein (HPL) concentrations (corresponding to low density lipoprotein and very low density lipoprotein fractions) in the same hypercholesterolemic mice from Test 6 above by more than 20% (>20) from control animals indicates activity.

[14] = test system: mice; assay: Pupil dilation in mice; type: in vivo, mouse; conditions: i.p., reference compounds and the doses thereof
Description: If the pupil diameter of mice exceeds 1.0 mm (>1) in bright light 30 minutes after dosing, i.p., ganglionic blockage or anti-cholinergic activity is indicated in the absence of adrenergic action. The following are reference compounds and the doses thereof.

[15] = test system: rats; assay: Antiedema: carrageenan paw edema in rats; type: in vivo; conditions: Rattus norvegicus, po, 3 h, read-out: ED-100, antiedema
Description: Rats are dosed p.o. one hour before intraplantar injection of carrigeenan (0.1 ml, 1% susp.). Inhibition of paw edema by more than 30% (>30) 3 hours after carriegeenan injection indicates acute anti-edema activity.

[16] = Overall pharmacological profile; conditions: in vivo
[17] = p.o., rats, reference compounds

Molecule: CN1CCN(C2=Nc3cc(Cl)ccc3Nc3ccccc32)CC1 [clozapine]
- ED100 ([1]; mice, reference compounds): 10 mg/kg
- ED100 [2]: 10 mg/kg

Molecule: CC1(C)CCCC(C)(C)N1CC1=CC(=O)N(c2cccc(Cl)c2)C1 [Compound 13]
- Acute toxicity / toxic effects [3]: absence
- inhibition in vivo at 100 mg/kg [4]: 4%
- inhibition in vivo at 5 mg/kg [5]: 1%
- A = Antiarrythmic: mouse hearts fibrillating (of 3) [6]: 3
- inhibition in vivo at 200 mg/kg ([7]; Mus musculus): 13%
- inhibition in vivo at 50 mg/kg ([8]; Rattus norvegicus): 88%
- CNS depression / CNS effects [9]: absence of CNS
- Anticholinergic properties/effects [10]: absence

Molecule: COc1ccc(Cl)cc1C(=O)NCCc1ccc(S(=O)(=O)NC(=O)NC2CCCCC2)cc1 [glibenclamide, reference compound]
- ED100 [11]: 1 mg/kg
- ED100 ([12]; glucose-loaded mice): 1 mg/kg

Molecule: c1cc(N2CCCCC2)ccc1OC12CC3CC(CC(C3)C1)C2 [Compound U-41792, reference compound]
- ED-100, hypocholesterolemic ([7]; p.o., reference compounds): 200 mg/kg
- ED-100, HP-betalipoprotein [13]: 200 mg/kg

Molecule: CN1[C@@H]2CC[C@H]1C[C@@H](OC(=O)C(CO)c1ccccc1)C2 (stereo partly shown) [atropine, reference compound]
- ED100 ([8]; Rattus norvegicus, po, read-out: ED-100, antiulcer): 5 mg/kg
- Reference dose, pupil dilation [14]: 0.25 mg/kg
- ED100 [1]: 0.25 mg/kg
- ED100 [2]: 2 mg/kg

Molecule: CCCCNC(=O)NS(=O)(=O)c1ccc(C)cc1 [tolbutamide, reference compound]
- ED100 [11]: 50 mg/kg
- ED100 ([12]; glucose-loaded mice): 50 mg/kg

Molecule: COc1ccc2cc([C@H](C)C(=O)O)ccc2c1 [naproxen]
- ED100 [15, 17]: 5 mg/kg

Molecule: CC(C)Cc1ccc(C(C)C(=O)O)cc1 (stereo not shown) [ibuprofen]
- ED100 [15, 17]: 25 mg/kg

Molecule: CC1(C)CCCC(C)(C)N1CC1=CC(=O)N(c2ccc(C(F)(F)F)cc2)C1 [Compound 7]
- inhibition in vivo at 100 mg/kg [4]: 16%
- inhibition in vivo at 5 mg/kg [5]: 12%
- A = Antiarrythmic: mouse hearts fibrillating (of 3) [6]: 3
- inhibition in vivo at 200 mg/kg ([7]; Mus musculus): 0%
- H = Hypoglycemic: percent decrease in serum glucose concentration ([12]; glucose loaded mice, 100 mg/kg oral dose, significance >20): 22%
- inhibition in vivo at 50 mg/kg ([8]; Rattus norvegicus): 38%
- Profile (comparison with another compound) [16]: generally similar to that of Compound 6

Molecule: CC(C)(Oc1ccc(CCNC(=O)c2ccc(Cl)cc2)cc1)C(=O)O [bezafibrate, reference compound]
- ED100 ([7]; Mus musculus, po, reference compounds, read-out: ED-100, hypocholesterolemic): 200 mg/kg
- ED100 ([13]; Mus musculus, po, read-out: ED-100, HP-betalipoprotein): 200 mg/kg

Molecule: CC(C(=O)O)c1cccc(C(=O)c2ccccc2)c1 (stereo not shown) [ketoprofen]
- ED100 [15]: 5 mg/kg

Molecule: insulin
- ED-100, CHO efficiency/hypoglycemic (insulin) ([11]; subcutaneous (s.c.)): 0.25 U
- ED-100, hypoglycemic, mice (insulin) ([12]; s.c., glucose-loaded mice): 0.25 U

Molecule: CC1(C)CCCC(C)(C)N1CC1=CC(=O)N(c2cccc(C#N)c2)C1 [Compound 15]
- Acute toxicity / toxic effects [3]: absence
- inhibition in vivo at 100 mg/kg [4]: 19%
- inhibition in vivo at 5 mg/kg [5]: 0%
- A = Antiarrythmic: mouse hearts fibrillating (of 3) [6]: 3
- inhibition in vivo at 200 mg/kg ([7]; Mus musculus): 15%
- inhibition in vivo at 50 mg/kg ([8]; Rattus norvegicus): 88%
- Antiulcer effect, in words ([8]; rat, in vivo): unusual and strong activity
- CNS depression / CNS effects [9]: absence of CNS depression
- Anticholinergic properties/effects [10]: absence
